Our source for the 3 h FOB score values is the OligoGym collection.

HELM strings list units from the 5' end as sugar, base in round brackets, then linkage (d deoxyribose, r ribose, m 2'-O-methyl, p phosphodiester). Strings are as the collection lists them; they lack the last nucleoside at the 3' end of the tested compound. [moe] = 2'-O-(2-methoxyethyl) (MOE); [sp] = phosphorothioate linkage; [m5C] = 5-methylcytosine

This data set addresses PRNP. The experiment in a line: mouse, dose not given. The conditions noted are these: ASO.
Take “RNA1{[moe](G)[sp].[moe](T)p.[moe]([m5C])p.[moe](A)p.[moe](G)p.d(T)[sp].d(T)[sp].d(T)[sp].d(T)[sp].d(T)[sp].d([m5C])[sp].d([m5C])[sp].d([m5C])[sp].d([m5C])[sp].[moe](A)p.[moe]([m5C])p.[moe](A)[sp].[moe](T)}$$$$ (last 3' nucleoside missing)”: the 3 h FOB score amounted to 0 score 0-7.
With “RNA1{[moe](G)[sp].[moe](T)p.[moe]([m5C])p.[moe](A)p.[moe](T)[sp].d(A)[sp].d(A)[sp].d(T)[sp].d(T)[sp].d(T)[sp].d(T)[sp].d([m5C])[sp].d(T)[sp].d(T)[sp].d(A)[sp].[moe](G)p.[moe]([m5C])p.[moe](T)[sp].[moe](A)}$$$$ (last 3' nucleoside missing)” the figure was 0 score 0-7; with “RNA1{[moe](G)[sp].[moe](T)p.[moe]([m5C])p.[moe](A)p.[moe](T)p.[moe](A)p.d(A)[sp].d(T)[sp].d(T)[sp].d(T)[sp].d(T)[sp].d([m5C])[sp].d(T)[sp].d(T)[sp].d(A)[sp].d(G)[sp].[moe]([m5C])p.[moe](T)[sp].[moe](A)}$$$$ (last 3' nucleoside missing)”, 2.5 score 0-7.
In turn, “RNA1{[moe](G)[sp].[moe](T)p.[moe]([m5C])p.[moe](A)p.[moe](T)p.d(A)[sp].d(A)[sp].d(T)[sp].d(T)[sp].d(T)[sp].d(T)[sp].d([m5C])[sp].d(T)[sp].d(T)[sp].[moe](A)[sp].[moe](G)p.[moe]([m5C])p.[moe](T)}$$$$ (last 3' nucleoside missing)” returned a 3 h FOB score of 0 score 0-7.
For “RNA1{[moe](G)[sp].[moe](T)p.[moe]([m5C])p.[moe](A)p.d(G)[sp].d(T)[sp].d(T)[sp].d(T)[sp].d(T)[sp].d(T)[sp].d([m5C])[sp].d([m5C])[sp].d([m5C])[sp].d([m5C])[sp].[moe](A)p.[moe]([m5C])p.[moe](A)p.[moe](T)[sp].[moe](A)}$$$$ (last 3' nucleoside missing)” the value was 0 score 0-7.
For “RNA1{[moe](G)[sp].[moe](T)p.[moe]([m5C])p.[moe](A)p.d(T)[sp].d(A)[sp].d(A)[sp].d(T)[sp].d(T)[sp].d(T)[sp].d(T)[sp].d([m5C])[sp].d(T)[sp].d(T)[sp].[moe](A)p.[moe](G)p.[moe]([m5C])p.[moe](T)[sp].[moe](A)}$$$$ (last 3' nucleoside missing)” the value was 0.25 score 0-7; for “RNA1{[moe](G)[sp].[moe](T)p.[moe]([m5C])p.[moe]([m5C])p.[moe](A)[sp].d(A)[sp].d(A)[sp].d(A)[sp].d(A)[sp].d(T)[sp].d(A)[sp].d(A)[sp].d(G)[sp].d(T)[sp].d([m5C])[sp].[moe]([m5C])p.[moe](A)p.[moe](G)[sp].[moe](A)}$$$$ (last 3' nucleoside missing)”, 1 score 0-7; for “RNA1{[moe](G)[sp].[moe](T)p.[moe]([m5C])p.[moe]([m5C])p.[moe](A)[sp].d(T)[sp].d(T)[sp].d(T)[sp].d(T)[sp].d([m5C])[sp].d(T)[sp].d(G)[sp].d(T)[sp].d(G)[sp].d([m5C])[sp].[moe](T)p.[moe](T)p.[moe](T)[sp].[moe](T)}$$$$ (last 3' nucleoside missing)”, 4.5 score 0-7.
With “RNA1{[moe](G)[sp].[moe](T)p.[moe]([m5C])p.d(A)[sp].d(G)[sp].d(T)[sp].d(T)[sp].d(T)[sp].d(T)[sp].d(T)[sp].d([m5C])[sp].d([m5C])[sp].d([m5C])[sp].[moe]([m5C])p.[moe](A)p.[moe]([m5C])p.[moe](A)p.[moe](T)[sp].[moe](A)}$$$$ (last 3' nucleoside missing)” the figure was 0 score 0-7; with “RNA1{[moe](G)[sp].[moe]([m5C])[sp].[moe]([m5C])[sp].[moe](A)[sp].[moe]([m5C])[sp].d(A)[sp].d(T)[sp].d(A)[sp].d(T)[sp].d(A)[sp].d(G)[sp].d(G)[sp].d(G)[sp].d(T)[sp].d([m5C])[sp].[moe]([m5C])[sp].[moe](T)[sp].[moe](T)[sp].[moe](T)}$$$$ (last 3' nucleoside missing)”, 4.25 score 0-7.
With “RNA1{[moe](G)[sp].[moe]([m5C])p.[moe](A)p.[moe](A)p.[moe](G)[sp].d([m5C])[sp].d(A)[sp].d(G)[sp].d(T)[sp].d(T)[sp].d([m5C])[sp].d(T)[sp].d(T)[sp].d(T)[sp].d(T)[sp].[moe]([m5C])p.[moe](T)p.[moe](T)[sp].[moe](T)}$$$$ (last 3' nucleoside missing)”, the 3 h FOB score amounted to 6 score 0-7.
For “RNA1{[moe](G)[sp].[moe]([m5C])p.[moe](A)p.[moe](A)p.[moe]([m5C])[sp].d(G)[sp].d(G)[sp].d([m5C])[sp].d(T)[sp].d([m5C])[sp].d(A)[sp].d(T)[sp].d(G)[sp].d(A)[sp].d(T)[sp].[moe](G)p.[moe](A)p.[moe](A)[sp].[moe]([m5C])}$$$$ (last 3' nucleoside missing)” the value was 3.5 score 0-7; for “RNA1{[moe](G)[sp].[moe]([m5C])p.[moe](A)p.[moe](G)p.[moe](A)[sp].d(A)[sp].d(A)[sp].d(G)[sp].d(T)[sp].d(A)[sp].d(G)[sp].d([m5C])[sp].d(T)[sp].d(A)[sp].d(T)[sp].[moe]([m5C])p.[moe](A)p.[moe](T)[sp].[moe](T)}$$$$ (last 3' nucleoside missing)”, 4.25 score 0-7; for “RNA1{[moe](G)[sp].[moe]([m5C])p.[moe](A)p.[moe]([m5C])p.[moe](A)[sp].d([m5C])[sp].d(T)[sp].d(G)[sp].d(A)[sp].d([m5C])[sp].d([m5C])[sp].d(A)[sp].d(T)[sp].d(T)[sp].d(T)[sp].[moe](T)p.[moe](T)p.[moe](T)[sp].[moe](A)}$$$$ (last 3' nucleoside missing)”, 0 score 0-7.
With “RNA1{[moe](G)[sp].[moe]([m5C])p.[moe](A)p.[moe]([m5C])p.[moe](A)p.[moe]([m5C])p.d(T)[sp].d(G)[sp].d(A)[sp].d([m5C])[sp].d([m5C])[sp].d(A)[sp].d(T)[sp].d(T)[sp].d(T)[sp].d(T)[sp].[moe](T)p.[moe](T)[sp].[moe](A)}$$$$ (last 3' nucleoside missing)” the figure was 0 score 0-7; with “RNA1{[moe](G)[sp].[moe]([m5C])p.[moe](A)p.[moe]([m5C])p.[moe](A)p.d([m5C])[sp].d(T)[sp].d(G)[sp].d(A)[sp].d([m5C])[sp].d([m5C])[sp].d(A)[sp].d(T)[sp].d(T)[sp].[moe](T)[sp].[moe](T)p.[moe](T)p.[moe](T)}$$$$ (last 3' nucleoside missing)”, 0 score 0-7.
On to “RNA1{[moe](G)[sp].[moe]([m5C])p.[moe](A)p.[moe]([m5C])p.d(A)[sp].d([m5C])[sp].d(T)[sp].d(G)[sp].d(A)[sp].d([m5C])[sp].d([m5C])[sp].d(A)[sp].d(T)[sp].d(T)[sp].[moe](T)p.[moe](T)p.[moe](T)p.[moe](T)[sp].[moe](A)}$$$$ (last 3' nucleoside missing)”, for which the 3 h FOB score is 2.25 score 0-7.
For “RNA1{[moe](G)[sp].[moe]([m5C])p.[moe](T)p.[moe](A)p.[moe](G)[sp].d(G)[sp].d(T)[sp].d(G)[sp].d(A)[sp].d([m5C])[sp].d(A)[sp].d(A)[sp].d(T)[sp].d(A)[sp].d(T)[sp].[moe]([m5C])p.[moe](A)p.[moe](A)[sp].[moe](A)}$$$$ (last 3' nucleoside missing)” the value was 0 score 0-7.
For “RNA1{[moe](G)[sp].[moe]([m5C])p.[moe](T)p.[moe](A)p.[moe](T)[sp].d(G)[sp].d(A)[sp].d(A)[sp].d(A)[sp].d(T)[sp].d([m5C])[sp].d(T)[sp].d([m5C])[sp].d(T)[sp].d(A)[sp].[moe]([m5C])p.[moe](T)p.[moe](A)[sp].[moe](A)}$$$$ (last 3' nucleoside missing)” the value was 2.5 score 0-7; for “RNA1{[moe](G)[sp].[moe]([m5C])p.[moe](T)p.[moe](A)p.[moe](T)[sp].d([m5C])[sp].d(T)[sp].d(T)[sp].d(T)[sp].d([m5C])[sp].d(T)[sp].d(A)[sp].d(T)[sp].d(T)[sp].d(T)[sp].[moe](G)p.[moe](T)p.[moe](G)[sp].[moe](T)}$$$$ (last 3' nucleoside missing)”, 1 score 0-7; for “RNA1{[moe](G)[sp].[moe]([m5C])p.[moe](T)p.[moe](T)p.[moe](A)[sp].d(A)[sp].d(T)[sp].d(T)[sp].d(A)[sp].d(G)[sp].d(T)[sp].d(T)[sp].d(A)[sp].d([m5C])[sp].d(A)[sp].[moe](T)p.[moe]([m5C])p.[moe](G)[sp].[moe](G)}$$$$ (last 3' nucleoside missing)”, 4.5 score 0-7.
With “RNA1{[moe](G)[sp].[moe]([m5C])p.[moe](T)p.[moe](T)p.[moe](A)[sp].d(T)[sp].d(T)[sp].d(A)[sp].d(T)[sp].d(T)[sp].d([m5C])[sp].d(A)[sp].d(T)[sp].d(G)[sp].d(T)[sp].[moe](T)p.[moe]([m5C])p.[moe](T)[sp].[moe]([m5C])}$$$$ (last 3' nucleoside missing)” the figure was 3.5 score 0-7; with “RNA1{[moe](G)[sp].[moe]([m5C])p.[moe](T)p.[moe](T)p.[moe](A)[sp].d([m5C])[sp].d(T)[sp].d([m5C])[sp].d(G)[sp].d(G)[sp].d([m5C])[sp].d(T)[sp].d(T)[sp].d(G)[sp].d(T)[sp].[moe](T)p.[moe]([m5C])p.[moe]([m5C])[sp].[moe](A)}$$$$ (last 3' nucleoside missing)”, 5.25 score 0-7; with “RNA1{[moe](G)[sp].[moe]([m5C])p.[moe](T)p.[moe](T)p.[moe](A)p.[moe](T)p.d(T)[sp].d(A)[sp].d(T)[sp].d(T)[sp].d([m5C])[sp].d(A)[sp].d(T)[sp].d(G)[sp].d(T)[sp].d(T)[sp].[moe]([m5C])p.[moe](T)[sp].[moe]([m5C])}$$$$ (last 3' nucleoside missing)”, 1.75 score 0-7.
In turn, “RNA1{[moe](G)[sp].[moe]([m5C])p.[moe](T)p.[moe](T)p.[moe](A)p.[moe]([m5C])p.d(T)[sp].d([m5C])[sp].d(G)[sp].d(G)[sp].d([m5C])[sp].d(T)[sp].d(T)[sp].d(G)[sp].d(T)[sp].d(T)[sp].[moe]([m5C])p.[moe]([m5C])[sp].[moe](A)}$$$$ (last 3' nucleoside missing)” came in with a 3 h FOB score of 0.75 score 0-7.
